Data published in ChEMBL document CHEMBL1150573, “Three new triterpenes from the seeds of Combretum quadrangulare and their hepatoprotective activity” (J Nat Prod, 2001).
pIC50: −log10 of the molar value. Activity calls are given as the source filed them. No cut-off for these calls is given here.

Experiments:
Hepatocyte [1] = assay: Hepatoprotective activity against D-galactosamine/TNFalpha-induced cell death in primary cultured mouse hepatocytes assessed as cell viability at 100 uM treated for 30 mins before TNFalpha challenge measured after 18 hrs by MTT assay relative to normal hepatocytes; assay type: functional; conditions: read-out: Activity
Hepatocyte [2] = assay: Hepatoprotective activity against D-galactosamine/TNFalpha-induced cell death in primary cultured mouse hepatocytes assessed as cell viability at 25 uM treated for 30 mins before TNFalpha challenge measured after 18 hrs by MTT assay relative to normal hepatocytes; assay type: functional; conditions: read-out: Activity
Hepatocyte [3] = assay: Hepatoprotective activity against D-galactosamine/TNFalpha-induced cell death in primary cultured mouse hepatocytes at 50 uM treated for 30 mins before TNFalpha challenge measured after 18 hrs by MTT assay relative to control; assay type: functional
Hepatocyte [4] = assay: Hepatoprotective activity against D-galactosamine/TNFalpha-induced cell death in primary cultured mouse hepatocytes assessed as cell viability at 50 uM treated for 30 mins before TNFalpha challenge measured after 18 hrs by MTT assay relative to normal hepatocytes; assay type: functional; conditions: read-out: Activity
Hepatocyte [5] = assay: Hepatoprotective activity against D-galactosamine/TNFalpha-induced cell death in primary cultured mouse hepatocytes at 25 uM treated for 30 mins before TNFalpha challenge measured after 18 hrs by MTT assay relative to control; assay type: functional
Hepatocyte [6] = assay: Hepatoprotective activity against D-galactosamine/TNFalpha-induced cell death in primary cultured mouse hepatocytes at 100 uM treated for 30 mins before TNFalpha challenge measured after 18 hrs by MTT assay relative to control; assay type: functional
Hepatocyte [7] = assay: Hepatoprotective activity against D-galactosamine/TNFalpha-induced cell death in primary cultured mouse hepatocytes treated for 30 mins before TNFalpha challenge measured after 18 hrs by MTT assay; assay type: functional, cell-based

SMILES | viability at 100 µM (Hepatocyte [1]) | viability at 25 µM (Hepatocyte [2]) | inhibition at 50 µM (Hepatocyte [3]) | viability at 50 µM (Hepatocyte [4]) | inhibition at 25 µM (Hepatocyte [5]) | inhibition at 100 µM (Hepatocyte [6]) | Activity (Hepatocyte [7]) | pIC50 (Hepatocyte [7])
CC1(C)CC[C@]2(C(=O)O)CC[C@]3(C)C(=CC[C@@H]4[C@@]5(C)C[C@@H](O)[C@H](O)C(C)(C)[C@@H]5[C@H](O)C[C@]43C)[C@@H]2[C@@H]1O | 26.1% | 24.2% | 18% | 24.7% | 15.4% | 24.4% |  | 
C[C@H]1[C@H](C)CC[C@]2(C(=O)O[C@@H]3O[C@H](CO)[C@@H](O)[C@H](O)[C@H]3O)CC[C@]3(C)C(=CC[C@@H]4[C@@]5(C)C[C@@H](O)[C@H](O)[C@@](C)(CO)[C@@H]5CC[C@]43C)[C@H]12 |  |  |  |  |  |  | inactive | 
C=C(C)[C@@H]1CC[C@]2(C(=O)O[C@@H]3O[C@H](CO)[C@@H](O)[C@H](O)[C@H]3O)CC[C@]3(C)[C@H](CC[C@@H]4[C@@]5(C)C[C@@H](O)[C@H](O)[C@@](C)(CO)[C@@H]5[C@H](O)C[C@]43C)[C@@H]12 |  |  |  |  |  |  | Active | 
CC1(C)CC[C@]2(C(=O)O)CC[C@]3(C)C(=CC[C@@H]4[C@@]5(C)C[C@@H](O)[C@H](O)C(C)(C)[C@@H]5CC[C@]43C)[C@@H]2[C@@H]1O [ARJUNIC ACID] | 27.8% | 26.5% | 27% | 26.6% | 26.7% | 32.9% |  | 
CC1=C2C3=CC[C@@H]4[C@@]5(C)C[C@@H](O)[C@H](O)[C@@](C)(CO)[C@@H]5[C@H](O)C[C@@]4(C)[C@]3(C)CC[C@@]2(C(=O)O[C@@H]2O[C@H](CO)[C@@H](O)[C@H](O)[C@H]2O)CC[C@H]1C |  |  |  |  |  |  | Active | 
C=C(C)[C@@H]1CC[C@]2(C(=O)O[C@@H]3O[C@H](CO)[C@@H](O)[C@H](O)[C@H]3O)CC[C@]3(C)[C@H](CC[C@@H]4[C@@]5(C)C[C@@H](O)[C@H](O)C(C)(C)[C@@H]5[C@H](O)C[C@]43C)[C@@H]12 |  |  |  |  |  |  | Active | 
CC[C@H](CC[C@@H](C)[C@H]1CC[C@H]2[C@@H]3CC=C4C[C@@H](O)CC[C@]4(C)[C@H]3CC[C@]12C)C(C)C [BETA-SITOSTEROL] | 27.3% | 24.3% | 28.1% | 26.4% | 17.7% | 32.5% |  | 
COc1cc(C2Oc3cc([C@H]4Oc5cc(O)cc(O)c5C(=O)[C@@H]4O)ccc3OC2CO)ccc1O (stereo not given in full) [SILIBININ] | 47.9% | 30.2% | 68.2% | 35.1% | 44.9% | 129% |  | 4.52
CC1=C2C3=CC[C@@H]4[C@@]5(C)C[C@@H](O)[C@H](O)[C@@](C)(CO)[C@@H]5CC[C@@]4(C)[C@]3(C)CC[C@@]2(C(=O)O)CC[C@H]1C | 51.5% | 29.4% | 47.4% | 30.8% | 40.6% | 150% |  | 4.29
C=C(C)[C@@H]1CC[C@]2(C(=O)O)CC[C@]3(C)[C@H](CC[C@@H]4[C@@]5(C)C[C@@H](O)[C@H](O)C(C)(C)[C@@H]5[C@H](O)C[C@]43C)[C@@H]12 | 47.6% | 22.2% | 35.8% | 28.4% | 5.9% | 128% |  | 4.22
C[C@@H]1CC[C@]2(C(=O)O[C@@H]3O[C@H](CO)[C@@H](O)[C@H](O)[C@H]3O)CC[C@]3(C)C(=CC[C@@H]4[C@@]5(C)C[C@@H](O)[C@H](O)[C@@](C)(CO)[C@@H]5CC[C@]43C)[C@@H]2[C@]1(C)O |  |  |  |  |  |  | inactive | 
C=C(C)[C@@H]1CC[C@]2(C(=O)O)CC[C@]3(C)[C@H](CC[C@@H]4[C@@]5(C)C[C@@H](O)[C@H](O)[C@@](C)(CO)[C@@H]5[C@H](O)C[C@]43C)[C@@H]12 | 36% | 28.6% | 46.2% | 30.6% | 36.4% | 71.7% |  | 4.29
C[C@@H]1CC[C@]2(C(=O)O)CC[C@]3(C)C(=CC[C@@H]4[C@@]5(C)C[C@@H](O)[C@H](O)[C@@](C)(CO)[C@@H]5CC[C@]43C)[C@@H]2[C@]1(C)O |  |  |  |  |  |  | inactive | 
CC1(C)CC[C@]2(C(=O)O)CC[C@]3(C)C(=CC[C@@H]4[C@@]5(C)C[C@@H](O)[C@H](O)[C@@](C)(CO)[C@@H]5CC[C@]43C)[C@@H]2C1 [ARJUNOLIC ACID] | 43.6% | 24.9% | 33.8% | 28% | 19.1% | 108% |  | 4.23
CC1(C)[C@@H](O[C@H]2O[C@H](C(=O)O)[C@@H](O)[C@H](O)[C@H]2O[C@@H]2O[C@H](C(=O)O)[C@@H](O)[C@H](O)[C@H]2O)CC[C@]2(C)[C@H]3C(=O)C=C4[C@@H]5C[C@@](C)(C(=O)O)CC[C@]5(C)CC[C@@]4(C)[C@]3(C)CC[C@@H]12 [GLYCYRRHIZIN] |  |  |  |  |  |  |  | < 3.70
